From PubChem BioAssay AID1259407 (Chemical Carcinogenesis Research Information System (CCRIS), 2018)
Active and inactive are the calls of the source. No rule for the calls is given here.

Test system: CCRIS mutagenicity, Ames/micronucleus/aberration tests
Experiment: CCRIS mutagenicity studies
[1] = Test System: AMES SALMONELLA TYPHIMURIUM, Strain/Indicator: TA100, Metabolic Activation: NONE, Method: STANDARD PLATE

For `CCCSP(=O)(OCC)SCCC`, the mutagenic call (End Point: In vitro chromosomal aberrations, Test System: Chinese hamster ovary (CHO) cells, Metabolic Activation: None) was “inactive; negative”, the mutagenic call (End Point: UDS/DNA repair, Test System: Fischer 344 rat (male) hepatocytes, Metabolic Activation: None, Method: Autoradiography) was “inactive; negative” and the mutagenic call (End Point: UDS, Test System: Fischer 344 rat hepatocytes, Metabolic Activation: None, Method: Autoradiography) was “inactive; negative”. For the same compound, the mutagenic call (Test System: Ames Salmonella typhimurium, Strain/Indicator: TA98, Metabolic Activation: None, Method: Plate incorporation) was “inactive; negative”, the mutagenic call (Test System: Ames Salmonella typhimurium, Strain/Indicator: TA98, Metabolic Activation: Rat, Liver, S-9, Method: Plate incorporation) was “inactive; negative” and the mutagenic call (Test System: Ames Salmonella typhimurium, Strain/Indicator: TA100, Metabolic Activation: None, Method: Plate incorporation) was “inactive; negative”. The mutagenic call (Test System: Ames Salmonella typhimurium, Strain/Indicator: TA100, Metabolic Activation: Rat, Liver, S-9, Method: Plate incorporation) was “inactive; negative”, the mutagenic call (Test System: Ames Salmonella typhimurium, Strain/Indicator: TA1535, Metabolic Activation: None, Method: Plate incorporation) was “inactive; negative” and the mutagenic call (Test System: Ames Salmonella typhimurium, Strain/Indicator: TA1535, Metabolic Activation: Rat, Liver, S-9, Method: Plate incorporation) was “inactive; negative”. For the same compound, the mutagenic call (Test System: Ames Salmonella typhimurium, Strain/Indicator: TA1537, Metabolic Activation: None, Method: Plate incorporation) was “inactive; negative”, the mutagenic call (Test System: Ames Salmonella typhimurium, Strain/Indicator: TA1537, Metabolic Activation: Rat, Liver, S-9, Method: Plate incorporation) was “inactive; negative” and the mutagenic call (Test System: Ames Salmonella typhimurium, Strain/Indicator: TA1538, Metabolic Activation: None, Method: Plate incorporation) was “inactive; negative”. The mutagenic call (Test System: Ames Salmonella typhimurium, Strain/Indicator: TA1538, Metabolic Activation: Rat, Liver, S-9, Method: Plate incorporation) was “inactive; negative”, the mutagenic call (Test System: Chinese hamster ovary, Strain/Indicator: CHO-K1-BH4 (HGPRT), Metabolic Activation: None, Method: Suspension/plate) was “inactive; negative” and the mutagenic call (Test System: Chinese hamster ovary, Strain/Indicator: CHO-K1-BH4 (HGPRT), Metabolic Activation: Rat, Liver, S-9, Method: Suspension/plate) was “inactive; negative”. The mutagenic call (Test System: Mouse lymphoma cells, Strain/Indicator: L5178Y cells, Metabolic Activation: None, Method: Plate) was “inactive; negative” and the mutagenic call (Test System: Mouse lymphoma cells, Strain/Indicator: L5178Y cells, Metabolic Activation: S-9, Method: Plate) was “inactive; negative”.
For `CN(Cc1ccccc1)C(=O)CBr`, the mutagenic call (Test System: AMES SALMONELLA TYPHIMURIUM, Strain/Indicator: TA100, Metabolic Activation: MOUSE, LIVER, S-9, AROCLOR 1254, Method: STANDARD PLATE) was “inactive; negative” and the mutagenic call [1] was “inactive; negative”.
`CCCCCCCCCCCCCC(=O)N(OC(C)=O)c1ccc2c(c1)Cc1ccccc1-2` was tested, and the mutagenic call (Test System: UDS HUMAN FIBROBLASTS, Strain/Indicator: THY INCORP (NON-S-PHASE), Metabolic Activation: NONE, Method: AUTORADIOGRAPHY) was “active; positive”.
For `CN[C@H]1CCc2cc(OC)c(OC)c(OC)c2-c2ccc(OC)c(=O)cc21`, the mutagenic call (Test System: AMES SALMONELLA TYPHIMURIUM, Strain/Indicator: TA98, Metabolic Activation: NONE, Method: STANDARD PLATE) was “inactive; negative”, the mutagenic call [1] was “inactive; negative” and the mutagenic call (Test System: E. COLI, Strain/Indicator: WP2 (HCR), Metabolic Activation: NONE, Method: STANDARD PLATE) was “inactive; negative”.
For `Cc1ccnc2ccccc12`, the mutagenic call (Test System: AMES SALMONELLA TYPHIMURIUM, Strain/Indicator: TA100, Metabolic Activation: RAT, LIVER, S-9, PHENOBARBITAL AND 5,6-BENZOFLAVONE, Method: PREINCUBATION) was “active; positive”, the mutagenic call (Test System: AMES SALMONELLA TYPHIMURIUM, Strain/Indicator: TA100, Metabolic Activation: RAT, LIVER, S-9, PHENOBARBITAL AND 5,6-NAPHTHOFLAVONE, Method: PREINCUBATION) was “active; positive” and the mutagenic call (Test System: AMES SALMONELLA TYPHIMURIUM, Strain/Indicator: TA100, Metabolic Activation: RAT, LIVER, S-9, Method: PREINCUBATION) was “active; positive”. The mutagenic call (Test System: UDS RODENT HEPATOCYTES, Strain/Indicator: THY INCORP (NON-S-PHASE), Metabolic Activation: NONE, Method: AUTORADIOGRAPHY) was “active; positive”.
In the case of `OCc1ccc(Cl)cc1`, the mutagenic call [1] is reported as “inactive; negative”.
In the case of `CC(=O)N(Cl)c1ccc2c(c1)Cc1ccccc1-2`, the mutagenic call (Test System: AMES SALMONELLA TYPHIMURIUM, Strain/Indicator: TA98, Metabolic Activation: RAT, LIVER, S-9, AROCLOR 1254, Method: STANDARD PLATE) is reported as “active; positive”.
In the case of `c1ccc2c3c4c(cc5ccccc5c4cc2c1)C1=C3CCCC1`, the mutagenic call (Test System: AMES SALMONELLA TYPHIMURIUM, Strain/Indicator: TA100, Metabolic Activation: RAT, LIVER, S-9, 3-METHYLCHOLANTHRENE, Method: STANDARD PLATE) is reported as “active; positive”.
